In the assay the target is T1, Recombinant HCV polymerase (Hepatitis C virus genotype 1b, UniProt P26663).
T1 construct: 2.5 pmoles (0.15 μg) HCV polymerase protein
T1 sequence (P26663 2420-3010): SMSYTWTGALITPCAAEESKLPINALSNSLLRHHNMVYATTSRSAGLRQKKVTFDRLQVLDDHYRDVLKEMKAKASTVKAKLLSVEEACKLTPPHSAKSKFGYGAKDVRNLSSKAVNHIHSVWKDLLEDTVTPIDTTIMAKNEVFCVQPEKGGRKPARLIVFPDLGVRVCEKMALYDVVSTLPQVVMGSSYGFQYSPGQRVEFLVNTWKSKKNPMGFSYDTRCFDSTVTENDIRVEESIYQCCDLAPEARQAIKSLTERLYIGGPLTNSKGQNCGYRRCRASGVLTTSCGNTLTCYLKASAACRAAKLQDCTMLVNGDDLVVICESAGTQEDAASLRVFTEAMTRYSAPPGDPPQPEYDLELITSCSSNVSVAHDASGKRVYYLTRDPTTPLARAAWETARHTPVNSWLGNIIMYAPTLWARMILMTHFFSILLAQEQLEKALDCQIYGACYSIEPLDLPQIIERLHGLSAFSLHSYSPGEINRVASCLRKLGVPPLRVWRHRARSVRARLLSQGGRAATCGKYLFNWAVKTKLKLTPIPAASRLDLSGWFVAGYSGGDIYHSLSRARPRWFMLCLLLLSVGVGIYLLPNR
The assay can be described thus: HCV Polymerase Inhibition Assay. In kind it is biochemical. The settings on record: primer/template-directed transcription, 30 minutes at 30° C.; category symbol. Put shortly:
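Recombinant genotype 1b polymerase (2.5 pmol) extended biotin-dG12 on poly(rC)300 with 1 μM GTP plus α-32P-GTP, pH 7.2, 30 min at 30 °C, 1% DMSO final; DE-filter-bound product counted. IC50 fitted from triplicate cpm, refitted with enzyme-concentration (30 nM) tight-binding equation when below 200 nM.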
Take `COc1ccc(CCC2(C3CCCC3)CC(=O)CC(=O)O2)cc1F` (stereo not shown) [Example 30, 6-Cyclopentyl-6-[2-(3-fluoro-4-methoxy-phenyl)-ethyl]-dihydro-pyran-2,4-dione]: the half-maximal inhibitory concentration (IC50) (commonly the point on the concentration scale where inhibition reaches its midpoint) is below 1 µM.

As to `COc1ccc(CCC2(C3CCCC3)CC(O)=C(Sc3nc4nc[nH]c4c(=O)[nH]3)C(=O)O2)cc1` (stereo not shown) [Example 118, 2-((6-Cyclopentyl-4-hydroxy-6-[2-(4-methoxyphenyl)ethyl]-2-oxo-5,6-dihydro-2H-pyran-3-yl}thio)-1,7-dihydro-6H-purin-6-one], the IC50 was below 1 µM.

Turning to `O=C1CC(=O)OC(CCc2ccc(OC3CCCC3)c(F)c2)(C2CCCC2)C1` (stereo not shown) [Example 77, 6-Cyclopentyl-6-[2-(4-cyclopentyloxy-3-fluoro-phenyl)-ethyl]-dihydro-pyran-2,4-dione], the IC50 lay in the range of 1 to 10 µM.

For the molecule `O=C1OC(CCc2ccc(OCc3ccccc3)cc2)(C2CCCC2)CC(O)=C1Sc1nc(O)c2cc[nH]c2n1` (stereo not shown) [Example 123, 6-{2-[4-(Benzyloxy)phenyl]ethyl}-6-cyclopentyl-4-hydroxy-3-[(4-hydroxy-7H-pyrrolo[2,3-d]pyrimidin-2-yl)thio]-5,6-dihydro-2H-pyran-2-one], the IC50 is below 1 µM.

Turning to `O=C1C=C(O)CC(CCc2cc3ccccc3o2)(C2CCCC2)O1` (stereo not shown) [Example 46, 6-[2-(1-benzofuran-2-yl)ethyl]-6-cyclopentyl-4-hydroxy-5,6-dihydro-2H-pyran-2-one], the IC50 is 10 to 50 µM.

In the case of `COc1cc(OC)c(CCC2(C3CCCC3)CC(O)=C(Sc3ccc(C(=O)O)cn3)C(=O)O2)cc1Cl` (stereo not shown) [Example 94, 6-({6-[2-(5-chloro-2,4-dimethoxyphenyl)ethyl]-6-cyclopentyl-4-hydroxy-2-oxo-5,6-dihydro-2H-pyran-3-yl}thio)nicotinic acid], the IC50 was below 1 µM.

In the case of `COc1c(F)cc(CCC2(C3CCCC3)CC(=O)CC(=O)O2)cc1F` (stereo not shown) [Example 43, 6-Cyclopentyl-6-[2-(3,5-difluoro-4-methoxy-phenyl)-ethyl]-dihydro-pyran-2,4-dione], the IC50 was 1 to 10 µM.

Turning to `COc1ccc(CCC2(C3CCCC3)CC(O)=C(Sc3n[nH]c(-c4ccncc4)n3)C(=O)O2)cc1` (stereo not shown) [Example 111, 6-Cyclopentyl-4-hydroxy-6-[2-(4-methoxyphenyl)ethyl]-3-[(5-pyridin-4-yl-1H-1,2,4-triazol-3-yl)thio]-5,6-dihydro-2H-pyran-2-one], the IC50 was below 1 µM.

Take `Cn1cccc(CCC2(C3CCCC3)CC(=O)CC(=O)O2)c1=O` (stereo not shown) [Example 37, 6-Cyclopentyl-6-[2-(1-methyl-2-oxo-1,2-dihydro-pyridin-3-yl)-ethyl]-dihydro-pyran-2,4-dione]: the half-inhibitory concentration (IC50) is above 50 µM.

Take `COc1ccc(CCC2(C3CCCC3)CC(=O)C(C(C)=O)C(=O)O2)c(OC)c1` (stereo not shown) [Example 166, 3-Acetyl-6-cyclopentyl-6-[2-(2,4-dimethoxy-phenyl)-ethyl]-dihydro-pyran-2,4-dione]: the IC50 is 10 to 50 µM.

Consider `CC(C)Oc1cccc(CCC2(C3CCCC3)CC(=O)CC(=O)O2)c1` (stereo not shown) [Example 33, 6-Cyclopentyl-6-[2-(3-isopropoxy-phenyl)-ethyl]-dihydro-pyran-2,4-dione], for which the IC50 lay within 1 to 10 µM.

Regarding `Cc1cc(SC2=C(O)CC(CCc3ccc(O)cc3)(C3CCCC3)OC2=O)c(C(C)(C)C)cc1CO` (stereo not shown) [Example 133, 3-(2-tert-butyl-4-hydroxymethyl-5-methyl-phenylsulfanyl)-6-cyclopentyl-4-hydroxy-6-[2-(4-hydroxy-phenyl)-ethyl]-5,6-dihydro-pyran-2-one], the IC50 is below 1 µM.

Regarding `O=C1CC(=O)OC(CCc2ccc(C3OCCO3)c(F)c2)(C2CCCC2)C1` (stereo not shown) [Example 78, 6-Cyclopentyl-6-[2-(4-[1,3]dioxolan-2-yl-3-fluoro-phenyl)-ethyl]-dihydro-pyran-2,4-dione], the IC50 lay within 1 to 10 µM.

Regarding `COc1ccc(CCC2(C3CCCC3)CC(O)=C(Sc3nc(N)c4cn[nH]c4n3)C(=O)O2)cc1` (stereo not shown) [Example 120, 3-[(4-Amino-1H-pyrazolo[3,4-d]pyrimidin-6-yl)thio]-6-cyclopentyl-4-hydroxy-6-[2-(4-methoxyphenyl)ethyl]-5,6-dihydro-2H-pyran-2-one], the IC50 was below 1 µM.

Turning to `Cc1cc(SC2=C(O)CC(CCc3ccc(O)cc3)(C3CCCCC3)OC2=O)c(C(C)(C)C)cc1OS(=O)(=O)c1ccccc1` (stereo not shown) [Example 135, Benzenesulfonic acid 5-tert-butyl-4-{6-cyclohexyl-4-hydroxy-6-[2-(4-hydroxy-phenyl)-ethyl]-2-oxo-5,6-dihydro-2H-pyran-3-ylsulfanyl}-2-methyl-phenyl ester], the IC50 was 10 to 50 µM.

For `CC(C)CCC1(C2CCCC2)CC(O)=CC(=O)O1` (stereo not shown) [Example 151, 6-Cyclopentyl-4-hydroxy-6-(3-methyl-butyl)-5,6-dihydro-pyran-2-one], the IC50 was above 50 µM.

With `O=C1C=C(O)CC(CCCC2CCCCC2)(C2CCCC2)O1` (stereo not shown) [Example 22, 6-(3-Cyclohexyl-propyl)-6-cyclopentyl-4-hydroxy-5,6-dihydro-pyran-2-one], the IC50 lay in the range of 10 to 50 µM.

In the case of `Cn1c(COc2ccc(CCC3(C4CCCC4)CC(O)=CC(=O)O3)cc2)nc2ccccc21` (stereo not shown) [Example 50, 6-Cyclopentyl-6-(2-{4-[(1-methyl-1H-benzimidazol-2-yl)methoxy]phenyl}ethyl)-4-hydroxy-5,6-dihydro-2H-pyran-2-one], the IC50 was in the range of 10 to 50 µM.

`COc1cc(OC)c(CCC2(C3CCCC3)CC(O)=C(Sc3nnc(O)n3C)C(=O)O2)cc1Cl` (stereo not shown) [Example 95, 6-[2(5-chloro-2,4-dimethoxyphenyl)ethyl]-6-cyclopentyl-4-hydroxy-3-[(5-hydroxy-4-methyl-4H-1,2,4-triazol-3-yl)thio]-5,6-dihydro-2H-pyran-2-one]: the half-maximal inhibitory concentration (IC50) is below 1 µM.

Take `CC(C)(C)c1cc2nc(N)sc2cc1SC1=C(O)CC(C2CCCC2)(C2CCCC2)OC1=O` [Example 183, 3-(2-Amino-5-tert-butyl-benzothiazol-6-ylsulfanyl)-6,6-dicyclopentyl-4-hydroxy-5,6-dihydro-pyran-2-one]: the IC50 was in the range of 10 to 50 µM.

For `CC(C)Oc1ccc(CCC2(C3CCCC3)CC(=O)CC(=O)O2)cc1F` (stereo not shown) [Example 73, 6-Cyclopentyl-6-[2-(3-fluoro-4-isopropoxy-phenyl)-ethyl]-dihydro-pyran-2,4-dione], the IC50 was below 1 µM.

For the molecule `Cc1noc(C)c1COc1ccc(CCC2(C3CCCC3)CC(O)=CC(=O)O2)cc1` (stereo not shown) [Example 49, 6-Cyclopentyl-6-(2-{4-[(3,5-dimethylisoxazol-4-yl)methoxy]phenyl}ethyl)-4-hydroxy-5,6-dihydro-2H-pyran-2-one], the IC50 lay within 10 to 50 µM.

As for `COc1ccc(OCC2(C3CCCC3)CC(=O)CC(=O)O2)cc1` (stereo not shown) [Example 58, 6-Cyclopentyl-6-(4-methoxy-phenoxymethyl)-dihydro-pyran-2,4-dione], the IC50 is above 50 µM.

As to `COc1ccc(CCC2(C3CCCC3)CC(=O)C(C(C)=O)C(=O)O2)cc1` (stereo not shown) [Example 168, 3-Acetyl-6-cyclopentyl-6-[2-(4-methoxy-phenyl)-ethyl]-dihydro-pyran-2,4-dione], the IC50 was in the range of 10 to 50 µM.

For `COc1ccc(CCC2(C3CCCC3)CC(=O)C(C(=O)Cc3cccnc3)C(=O)O2)c(OC)c1` (stereo not shown) [Example 172, 6-Cyclopentyl-6-[2-(2,4-dimethoxy-phenyl)-ethyl]-3-(2-pyridin-3-yl-acetyl)-dihydro-pyran-2,4-dione], the IC50 lay within 1 to 10 µM.

These data come from patent US7115658B2 (priority 2002, dated 2006).
